# Test results taken from ChEMBL document CHEMBL3045845, “Predicting 3H-1,2,4-triazolinones as angiotensin II receptor antagonists: 2D and 3D QSAR by kNN-molecular field analysis approach” (Med Chem Res, 2012).
# Biological target: T1, Angiotensin II receptor (AT-1) type-1 (Rattus norvegicus, UniProt P29089+P25095)
# T1 sequence (P29089 whole entry): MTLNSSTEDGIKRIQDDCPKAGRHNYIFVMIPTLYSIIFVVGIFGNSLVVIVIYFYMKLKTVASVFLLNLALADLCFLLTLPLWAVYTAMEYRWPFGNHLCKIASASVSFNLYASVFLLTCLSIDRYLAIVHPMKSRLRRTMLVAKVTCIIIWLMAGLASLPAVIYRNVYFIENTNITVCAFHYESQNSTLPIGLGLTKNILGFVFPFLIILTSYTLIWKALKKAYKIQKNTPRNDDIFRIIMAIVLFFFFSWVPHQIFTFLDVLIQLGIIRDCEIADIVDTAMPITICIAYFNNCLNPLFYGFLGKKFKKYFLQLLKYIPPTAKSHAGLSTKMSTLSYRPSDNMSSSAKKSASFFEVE
# T1 sequence (P25095 whole entry): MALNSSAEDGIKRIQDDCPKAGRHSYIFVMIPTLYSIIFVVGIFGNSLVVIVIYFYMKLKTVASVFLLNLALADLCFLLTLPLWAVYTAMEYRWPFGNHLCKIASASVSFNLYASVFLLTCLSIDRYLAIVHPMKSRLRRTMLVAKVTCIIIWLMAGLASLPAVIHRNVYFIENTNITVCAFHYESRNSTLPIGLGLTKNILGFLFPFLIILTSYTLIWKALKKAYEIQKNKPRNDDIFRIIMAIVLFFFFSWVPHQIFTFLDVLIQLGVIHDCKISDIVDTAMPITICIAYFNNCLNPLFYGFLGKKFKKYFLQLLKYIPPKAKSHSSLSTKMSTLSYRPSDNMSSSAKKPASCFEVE
# Test: Displacement of [125I]-angiotensin 2 from angiotensin AT1 receptor in Rattus norvegicus (rat) uterine membranes
Compound,IC50 [nM],pIC50
CCCCc1nn(CC(=O)C23CC4CC(CC(C4)C2)C3)c(=O)n1Cc1ccc(-c2ccccc2-c2nn[nH]n2)cc1,25,7.602
CCCCc1nn(CC(OCC)c2ccccc2)c(=O)n1Cc1ccc(-c2ccccc2-c2nn[nH]n2)cc1 (stereo unspecified),15,7.824
CCCCc1nn(CC(OCC(=O)O)c2ccccc2)c(=O)n1Cc1ccc(-c2ccccc2-c2nn[nH]n2)cc1 (stereo unspecified),30,7.523
CCCCc1nn(CCCCC(=O)O)c(=O)n1Cc1ccc(-c2ccccc2-c2nn[nH]n2)cc1,12,7.921
CCCCc1nn(CC(OC)c2ccccc2)c(=O)n1Cc1ccc(-c2ccccc2-c2nn[nH]n2)cc1 (stereo unspecified),12,7.921
CCCCc1nn(CC(O)c2ccccc2)c(=O)n1Cc1ccc(-c2ccccc2-c2nn[nH]n2)cc1 (stereo unspecified),3.6,8.444
CCCCc1nn(CC(O)c2cc(OC)ccc2OC)c(=O)n1Cc1ccc(-c2ccccc2-c2nn[nH]n2)cc1 (stereo unspecified),22,7.658
CCCCc1nn(C(Cc2ccccc2)C(=O)c2ccccc2)c(=O)n1Cc1ccc(-c2ccccc2-c2nn[nH]n2)cc1 (stereo unspecified),5800,5.237
CCCCc1nn(CCC2CCCCC2)c(=O)n1Cc1ccc(-c2ccccc2-c2nn[nH]n2)cc1,18,7.745
CCCCc1nn(CC(=O)OC(C)(C)C)c(=O)n1Cc1ccc(-c2ccccc2-c2nn[nH]n2)cc1,16,7.796
CCCCc1nn(CC(OCCC)c2ccccc2)c(=O)n1Cc1ccc(-c2ccccc2-c2nn[nH]n2)cc1 (stereo unspecified),45,7.347
CCCCc1nn(C(CC(=O)OCC)C(=O)c2ccccc2)c(=O)n1Cc1ccc(-c2ccccc2-c2nn[nH]n2)cc1 (stereo unspecified),36,7.444
CCCCc1nn(CCCc2ccccc2)c(=O)n1Cc1ccc(-c2ccccc2-c2nn[nH]n2)cc1,18,7.745
CCCCc1nn(CCc2ccccc2)c(=O)n1Cc1ccc(-c2ccccc2-c2nn[nH]n2)cc1,3.1,8.509
CCCCc1nn(CC(=O)c2cc(OC)ccc2OC)c(=O)n1Cc1ccc(-c2ccccc2-c2nn[nH]n2)cc1,21,7.678
CCCCc1nn(Cc2ccccc2)c(=O)n1Cc1ccc(-c2ccccc2-c2nn[nH]n2)cc1,16,7.796
CCCCc1nn(CC(OCc2ccccc2)c2ccccc2)c(=O)n1Cc1ccc(-c2ccccc2-c2nn[nH]n2)cc1 (stereo unspecified),280,6.553

Compound,IC50 [nM],pIC50
CCCCc1nn(CC(OCC(=O)OCC)c2ccccc2)c(=O)n1Cc1ccc(-c2ccccc2-c2nn[nH]n2)cc1 (stereo unspecified),180,6.745
CCCCc1nn(CC(=O)OCC)c(=O)n1Cc1ccc(-c2ccccc2-c2nn[nH]n2)cc1,9,8.046
CCCCCCCCn1nc(CCCC)n(Cc2ccc(-c3ccccc3-c3nn[nH]n3)cc2)c1=O,170,6.77
CCCCc1nn(CC(=O)O)c(=O)n1Cc1ccc(-c2ccccc2-c2nn[nH]n2)cc1,91,7.041
CCCCc1nn(CCCCCC(=O)OCC)c(=O)n1Cc1ccc(-c2ccccc2-c2nn[nH]n2)cc1,9.8,8.009
CCCCc1nn(CCCCCC(=O)O)c(=O)n1Cc1ccc(-c2ccccc2-c2nn[nH]n2)cc1,17,7.77
CCCCCCn1nc(CCCC)n(Cc2ccc(-c3ccccc3-c3nn[nH]n3)cc2)c1=O,8.7,8.06
CCCCc1nn(CCCC)c(=O)n1Cc1ccc(-c2ccccc2C(=O)O)cc1,101,6.996
CCCCc1nn(C(C)(C)C(=O)c2ccccc2)c(=O)n1Cc1ccc(-c2ccccc2-c2nn[nH]n2)cc1,43,7.367
CCCCc1nnc(O)n1Cc1ccc(-c2ccccc2-c2nn[nH]n2)cc1,42,7.377
CCCCCn1nc(CCCC)n(Cc2ccc(-c3ccccc3-c3nn[nH]n3)cc2)c1=O,5.6,8.252
CCCCc1nnc(O)n1Cc1ccc(-c2ccccc2C(=O)O)cc1,1500,5.824
CCCCc1nn(CCC(C)CC(C)(C)C)c(=O)n1Cc1ccc(-c2ccccc2-c2nn[nH]n2)cc1 (stereo unspecified),35,7.456
CCCCc1nn(CCC)c(=O)n1Cc1ccc(-c2ccccc2-c2nn[nH]n2)cc1,15,7.824
CCCCc1nn(Cc2ccc3ccccc3c2)c(=O)n1Cc1ccc(-c2ccccc2-c2nn[nH]n2)cc1,280,6.553
CCCCc1nn(C(C)CC)c(=O)n1Cc1ccc(-c2ccccc2-c2nn[nH]n2)cc1 (stereo unspecified),10,8
